Results on 7 compounds are retold here after PubChem BioAssay (NCI).

“And” between values parts separate entries of the source, which are not always exact repeats. Identical values can stand only once.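 48-hour exposure; five concentrations; linearly interpolated endpoints. Abbreviation: GI50, concentration required for 50% inhibition of growth. The concentration for full growth arrest is given as TGI.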 A value given as a limit tells only on which side of the number the result lay.

Holding throughout (test): inhibition of tumour cell growth, NCI panel, 48 h
Test [1] concerns DU-145 prostate.
Test [2] concerns SF-539 CNS.
The test system of test [3] is BT-549 breast.
Test [4] deals with UO-31 renal.
Test [5] concerns SK-MEL-28 melanoma.
The test system of test [6] is SF-268 CNS.
For test [7], the system named is HT29 colon.
For test [8], the system named is SR leukemia.
The subject of test [9] is UACC-62 melanoma.
The subject of test [10] is T-47D breast.

As for `Cc1nnn(C)c1-c1cnc2c3ccc(C(C)(C)O)cc3n([C@H](c3ccccc3)C3CCOCC3)c2c1`, the GI50 in test [1] is 11.2 µM; in [2], below 0.0182 µM; in test [3], 3.61 µM; in test [4] it was below 0.01 µM; in [5], 1.96 µM; in [6], 5.22 µM. Moreover, the GI50 is below 0.01 µM in test [7], below 0.01 µM in test [8], below 0.01 µM in test [9] and 0.0104 µM in [10]. Further, the TGI in [1] is above 100 µM; in test [2], 51.1 µM; in test [3], 24 µM; in test [4], 13.4 µM; in test [5], above 100 µM; in test [6], above 100 µM. In addition, the TGI in [7] was above 42 µM; in test [8], above 100 µM; in test [9], 12.7 µM; in test [10] it was above 100 µM.
`Cc1ccc(-c2cc(C(=O)Nc3ccc(S(=O)(=O)N4CCCCC4)cc3)[nH]n2)c(O)c1`: the GI50 in test [1], in test [2], in test [3], in test [4], in test [5] and in test [6] was above 100 µM in each case. Moreover, the GI50 in test [7] is above 100 µM; in test [8], 22.3 µM; in [9], above 100 µM; in test [10], above 100 µM. Further, the TGI in test [1], in test [2], in [3], in test [4], in test [5] and in test [6] was above 100 µM in each case. In addition, the TGI in test [7], in [8], in test [9] and in [10] was above 100 µM each time.
For `CCc1cc2c(c(OCC(F)(F)F)c(C(=O)NC3CCN(C(=O)CO)CC3)n2C)c(=O)n1CC(=O)c1ccccc1`, the GI50 in test [1] is above 100 µM; in test [2], 36.5 µM; in test [3], 51.3 µM; in test [4] it was 45.3 µM; in [5] it was 70.4 µM; in [6] it was above 90.3 µM. The GI50 was 65 µM in test [7], 50.7 µM in [8], 57.8 µM in [9] and above 65.9 µM in test [10]. The TGI in [1], in test [2], in [3], in test [4], in [5] and in test [6] was above 100 µM throughout. The TGI in test [7], in test [8], in [9] and in [10] was above 100 µM in each case.
For the compound `COc1cccc(/C=C2\CCC(CN(C)C)C2=O)c1` (stereo not given), the TGI in [1] was determined as 9.29 µM; in test [2], 27.9 µM; in [3] it was 15.2 µM; in test [4] it was 20.1 µM; in test [5] it was 8.52 µM; in test [6] it was 33.5 µM. Further, the TGI in test [7] came out at 40.7 µM; in test [8], 8.43 µM; in [9] it was 20.9 µM; in test [10] it was 16.6 µM.
Consider `CCCCCN(CCCCC)CCC[C@@H](C)[C@H]1CC[C@H]2[C@@H]3[C@H](OCCCN)C[C@@H]4C[C@H](OCCCN)CC[C@]4(C)[C@H]3C[C@H](OCCCN)[C@]12C`, for which the GI50 in [1] is 11.1 µM; in test [2], 1.94 µM; in test [3], 3.27 µM; in [4] it was 14.1 µM; in test [5], 2.46 µM; in test [6], 13.6 µM. Further, the GI50 is 2.65 µM in test [7], 2.38 µM in test [8], 1.56 µM in [9] and 10 µM in test [10]. Moreover, the TGI was 23.6 µM in test [1]; 4.3 µM in test [2]; 8.37 µM in test [3]; 51.7 µM in test [4]; 12.5 µM in [5]; 31.5 µM in [6]. Further, the TGI in test [7] came to 15.3 µM; in [8] it was 9.28 µM; in test [9] it was 6.41 µM; in test [10], 30.3 µM.
On to `O=C(COc1ccccc1)NNc1ccccc1`, for which the GI50 in test [1] was above 300 µM; in [2] it was 18.1 µM and 9.52 µM; in test [3], 90.7 µM; in [4], 10.3 µM and 20.1 µM; in [5], above 300 µM; in test [6], 140 µM. Moreover, the GI50 was 264 µM in [7]; > 26.3 µM and 6.77 µM in test [8]; 2.71 µM and 5 µM in test [9]; 35.2 µM and 19 µM in test [10]. In addition, the TGI is above 300 µM in [1]; 55.1 µM and 37.6 µM in test [2]; above 300 µM in [3]; above 300 µM in [4]; above 300 µM in test [5]; above 300 µM in test [6]. Also, the TGI was above 300 µM in test [7]; above 300 µM in test [8]; > 79.5 µM and 91.2 µM in [9]; above 300 µM in test [10].
Take `O=c1[nH]c(-c2ccc(Cl)c(Cl)c2)cn1-c1ccc(Cl)cc1`: the GI50 in test [1] is 29.1 µM; in [2] it was 20.1 µM; in test [3], 37.7 µM; in test [4], 25.4 µM; in test [5], 59.6 µM; in [6], 21.6 µM. For the same compound, the GI50 is 41.8 µM in test [7], 4.64 µM in test [8], 26.2 µM in test [9] and 25.5 µM in test [10]. In addition, the TGI in test [1] is above 100 µM; in test [2], 54.2 µM; in test [3] it was above 100 µM; in [4], 60.5 µM; in test [5], above 100 µM; in [6], 59.3 µM. Further, the TGI in [7] is above 100 µM; in test [8], 16.2 µM; in [9], 78.3 µM; in test [10], 84.5 µM.
